# Values of other authors, collected in patent US20130243861A1, “PRESS-COATED TABLETS OF PREDNISONE” (CADILA HEALTHCARE LIMITED, priority 2012, published 2013).
smiles,measurement,value
"C[C@]12C=CC(=O)C=C1CC[C@@H]1[C@@H]2C(=O)C[C@@]2(C)[C@H]1CC[C@]2(O)C(=O)CO [Prednisone, pregna-1,4-diene-3,11,20-trione, 17,21-dihydroxy-]",solubility in water,very slightly soluble
